From publication PMC12052742, “Engineering a newly identified alcohol dehydrogenase from Sphingobium Sp. for efficient utilization of nicotinamide cofactors biomimetics” (Bioresources and Bioprocessing, 2025)

Legend:
Type in all cases: biochemical, Sphingobium sp. SYK-6
[1] = system: SpADH2; experiment: Preliminary evaluation of NCB usage in oxidation of syringyl alcohol (HPLC); details: preliminary assay: 1a 1 mM, NCB 10 mM, pH 7.0, 30℃, 0.1 mg/mL enzyme, 1 h
Method: Sphingobium sp. SYK-6 belongs to genus Sphingomonas, and a search in UniProtKB identified 19 ADHs from this strain, including 5 PQQ-dependent and the remaining NAD^+/NADP^+-dependent enzymes. Two sequences annotated as aryl-alcohol dehydrogenases (SLG_34580 and SLG_24930) (Table. S1) were selected for heterologous expression (Fig. S1) and named SpADH1 and SpADH2, respectively. Their ability to utilize NCBs was assessed by oxidation of syringyl alcohol (1a) to produce syringaldehyde (1b) (Fig. 1a).
Fig. 1 (a) Reaction scheme of SpADH2-catalyzed oxidation of syringyl alcohol. (b) Specific activity of SpADH2 toward four NCBs. The evaluation of NCBs usage by SpADH2 was carried out under following conditions: 50 mM PBS buffer (pH 7.0) and 30℃, with 1a (1 mM) as substrate and 4 typical NCBs (10 mM) as cofactor. A total of 0.1 mg/mL enzyme was added to a 200 µL reaction mixture, and was analyzed by HPLC after 1 h reaction
Reaction samples were analyzed using Agilent 1260 Infinity II LC system under reversed phase condition. Column: Agilent C18 column. Analytical conditions for 1a and 1b: mobile phase: 50% water: 50% acetonitrile. The retention time for standard product 1b was 3.27 min, under flow rate of 1 mL·min^− 1and temperature of 30°C (Fig. S4).

[2] = system: SpADH2 variants (H43L, A290I, H43L/A290I); experiment: Cofactor spectrum (HPLC specific activity), all variants together; details: 1a 5 mM, cofactor 7.5 mM, pH 7.5, 30℃
Method: Fig. 8 Cofactor spectrums of SpADH2 and its variants. The darkness of color for each cofactor stands for the activity. For each cofactor cube, top left: WT, top right: H43L, bottom left: A290I, bottom right: H43L/A290I. (a) Natural cofactors and NMN^+ are shown in purple. (b) tsNCBs are shown in cyan. The evaluation of cofactor spectrum was carried out under following conditions: 50 mM PBS buffer (pH 7.5) and 30℃, with 1a (5 mM) as substrate and different cofactors (7.5 mM) as cofactor. For NAD(P)^+ and NMN^+, 0.05 µg enzyme was added, and for tsNCBs, 5 µg enzyme was added. The results were analyzed by HPLC after 1 h reaction
Specific activity of SpADH2 in cofactor spectrum study was determined by HPLC analysis. PBS (pH 7.5) buffer was pre-heated at 30°C for 15 min. For NAD(P)^+ and NMN^+, 0.05 µg SpADH2 was added to PBS buffer (100 µL). For tsNCBs, 5 µg SpADH2 was added. A final concentration of 7.5 mM cofactor was added to the reaction mixture. Finally, a final concentration of 5 mM substrate was added to start the reaction. The reactions were conducted at 30°C.
One unit of enzyme activity is defined as the amount of enzyme required to form 1 µmol 1b per minute at pH 7.5 and 30°C. Same reaction without cofactor was used as a blank control.

[3] = system: SpADH2 variant H43L; experiment: Cofactor kinetic assay, H43L
Method: (§1) Specific activity of SpADH2 in substrate spectrum study was measured spectrophotometrically. PBS (pH 7.5) buffer was pre-heated at 30°C for 15 min. For NAD^+, 0.05 µg SpADH2 was added to the PBS buffer (100 µL), and a final concentration of 2 mM NAD^+ was added. For tsNCBs cofactor p-BANA^+, 5 µg SpADH2 and a final concentration of 7.5 mM p-BANA^+ was added. The mixture was carried out in a 96-well microplate, and a final concentration of 5 mM substrate was added to start the reaction. The microplate was incubated in 30°C for 1 h. Florescent probes (2-[2-(1,4-dihydro-1-methyl-3-quinolinyl)ethenyl]-1,3,3-trimethyl-3H-indolium) in a final concentration of 0.2 mM (100 µL) was added (Scheme S1), and the microplate was placed in a microplate reader immediately for measurement under 537 nm (Fomin et al. [2016]).
(§2) Kinetic analysis of SpADH2 and its variants were carried out following Michaelis-Menten equation or Michaelis-Menten excess substrate inhibition equation. For of the substrate kinetic assays, concentrations of cofactors were fixed at 5 mM for NAD^+ and 7.5 mM for p-BANA^+. For cofactor kinetic assays, the concentration of 1a was fixed at 5 mM.
(§3) Specific activity was determined spectrophotometrically as above except that gradient 1a (0−20 mM) or cofactor (0−35 mM) concentrations were applied.
(§4) Cofactor specificity ratio (CSR) represents the ratio of catalytic efficiency of p-BANA^+ to NAD^+ for each enzyme, and relative specificity (RS) stands for the CSR ratio of variants to WT (King et al. [2020]).

[4] = system: SpADH2 variant H43L/A290I; experiment: Cofactor kinetic assay, H43L/A290I
Method: as §1, §2, §3, §4

[5] = system: SpADH2 variant A47L; experiment: Activity of variant in oxidation of syringyl alcohol with p-BANA^+ (Fig. 5), A47L; details: cofactor p-BANA^+, substrate syringyl alcohol
Method: (§5) In the first round of screening, saturation mutagenesis was constructed for six positions (W114, T177, G172, G316, A47, and R227). […] Therefore, in the second round of mutagenesis, six additional sites within the 5 Å range of the cofactor ribose (H43, V202, T265, V288, G289, and A290) were selected for saturation mutagenesis screening (Fig. 6c and Fig. S6). Three beneficial mutations were identified. […] Subsequently, combinatorial mutagenesis was performed, resulting in 11 double variants and 3 triple variants.
(§6) Fig. 5 Relative activity of SpADH2 and its variants in oxidation of syringyl alcohol when utilizing p-BANA^+ as cofactor
(§7) In preliminary screening by spectrophotometric analysis, PBS (pH 7.5) buffer (50 µL) in a 96-well plate was pre-warmed at 30°C for 15 min, and a final concentration of 5 mM p-BANA^+ and 1 mM substrate syringyl alcohol were added, and 50 µL of crude enzyme were add to each well to start the reaction, with WT as control. The reaction mixture was incubated at 30°C for 1 h, followed by addition of fluorescent probes in a final concentration of 0.2 mM, and was subjected to determination under 537 nm as described above.

[6] = system: SpADH2 variant A47S; experiment: Activity of variant in oxidation of syringyl alcohol with p-BANA^+ (Fig. 5), A47S; details: cofactor p-BANA^+, substrate syringyl alcohol
Method: as §5, §6, §7

[7] = cofactor (= label) varied, 1a fixed at 5 mM
[8] = cofactor (= label) varied, 1a fixed at 5 mM, pH 7.5, 30°C
[9] = cofactor (= label) varied, 1a fixed at 5 mM, read-out: Ki (cofactor inhibition)

NC(=O)c1ccc[n+](Cc2ccc(C(=O)O)cc2)c1 [p-BANA^+, para-3-carbamoyl-1-(4-carboxybenzyl)pyridin-1-ium]
catalytic activity of SpADH2 with the NCB as cofactor [1]: 1.62 U/g | catalytic activity of all variants with the cofactor (in words) [2]: highest activity | kcat [3, 7]: 5.1 ± 2.0 min^− 1 | Km [3, 8]: 28 ± 13 mM | Ki [3, 9]: 5.4 ± 2.5 mM | Cofactor specificity ratio (catalytic efficiency of p-BANA^+ to NAD^+) ([3]; cofactor kinetics): 3.08×10^-4 | Relative specificity (CSR ratio of variant to WT) ([3]; cofactor kinetics): 8.08 | kcat [4, 7]: 8.7 ± 1.3 min^− 1 | Km [4, 8]: 13 ± 2.7 mM | Ki [4, 9]: 15 ± 3.5 mM | Cofactor specificity ratio (catalytic efficiency of p-BANA^+ to NAD^+) ([4]; cofactor kinetics): 1.94×10^-2 | Relative specificity (CSR ratio of variant to WT) ([4]; cofactor kinetics): 509 | fold higher activity than WT [5]: 4.3 fold | fold higher activity than WT [6]: 1.8 fold
